Data taken from patent US20040097420A1, “Proteasome regulation of NF-kB activity” (Harvard College, priority 1994, published 2004).
Non-standard residues stand in square brackets, D forms with d. Residues, ends and D or L forms follow the SMILES beside them. *: point of attachment. 1Nal = N[C@@H](Cc1cccc2ccccc12)C(=O)O; 2Nal = N[C@@H](Cc1ccc2ccccc2c1)C(=O)O; hPhe = N[C@@H](CCc1ccccc1)C(=O)O; tBuAla = CC(C)(C)C[C@H](N)C(=O)O; Cha = N[C@@H](CC1CCCCC1)C(=O)O; AllylGly = C=CC[C@H](N)C(=O)O; Nle = CCCC[C@H](N)C(=O)O; Pra = C#CC[C@H](N)C(=O)O; Nva = CCC[C@H](N)C(=O)O; Abu = CC[C@H](N)C(=O)O; Cbz = O=C(OCc1ccccc1)*; Bn = c1ccc(C*)cc1

Assays:
20S proteasome [1] = biological target: T1, 20S proteasome (Oryctolagus cuniculus, UniProt G1T4Q9); assay: Inhibition of the 20S proteasome (kinetic experiments, Ki); assay type: biochemical, Rabbit; details: Table V, miscellaneous tripeptide aldehydes; 20S proteasome
T1 sequence (G1T4Q9 60-263): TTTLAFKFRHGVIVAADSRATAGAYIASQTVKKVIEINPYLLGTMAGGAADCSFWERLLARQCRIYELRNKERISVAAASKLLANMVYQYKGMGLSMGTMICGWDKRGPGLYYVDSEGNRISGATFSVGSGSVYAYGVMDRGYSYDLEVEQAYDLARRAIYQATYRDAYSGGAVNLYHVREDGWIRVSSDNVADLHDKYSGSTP
Description: (§1) Tables I-III summarize results from kinetic experiments that measured the inhibition of the 20S and 26S proteasomes, as well as cathepsin B and calpain. In these tables, Ki values are reported, which are dissociation constants for the equilibrium that is established when enzyme and inhibitor interact to form the enzyme:inhibitor complex.
(§2) The substances and assay conditions are briefly summarized in the footnotes to Table I. MG 101 and MG 102, also known as Calpain Inhibitor I and II, were purchased from Calbiochem as catalogue products.
(§3) Table V summarizes data for the inhibition of the 20S proteasome by various tripeptide aldehyde inhibitors.

20S Proteasome [2] = biological target: T2, 20S Proteasome (Oryctolagus cuniculus, UniProt G1T4Q9); assay: as above; assay type: biochemical, Rabbit; parameters: Ki 20 S; substrate Suc-LLVY-AMC; details: Rabbit muscle, SDS-activated; substrate Suc-LLVY-AMC
T2 sequence (G1T4Q9 1-263): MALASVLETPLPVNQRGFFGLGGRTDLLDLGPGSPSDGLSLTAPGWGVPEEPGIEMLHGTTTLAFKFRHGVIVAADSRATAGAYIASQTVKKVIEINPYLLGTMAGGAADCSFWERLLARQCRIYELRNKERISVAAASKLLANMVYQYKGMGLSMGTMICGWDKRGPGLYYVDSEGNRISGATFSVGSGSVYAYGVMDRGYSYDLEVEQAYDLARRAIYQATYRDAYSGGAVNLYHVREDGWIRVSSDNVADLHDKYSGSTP
Description: as §1, §2, §3

[3] = biological target: calpain, 80 kD catalytic subunit; assay: Inhibition of calpain (Ki); assay type: biochemical; details: Rabbit muscle, substrate Suc-LLVY-AMC, [CaCl2] = 1 mM, [DTT] = 2 mM, pH 7.8, 20° C.
Description: as §1

26S proteasome = biological target: T3, 26S proteasome (Oryctolagus cuniculus, UniProt G1T4Q9); assay: Inhibition of the 26S proteasome (kinetic experiments, Ki); assay type: biochemical; details: Rabbit muscle; substrate Suc-LLVY-AMC; [Mg:ATP] = 2 mM
T3 sequence (G1T4Q9 1-263): T2 sequence (G1T4Q9 1-263)
Description: as §1, §2

cathepsin B = biological target: T4, cathepsin B (Bos taurus, UniProt P07688); assay: Inhibition of cathepsin B (Ki); assay type: biochemical; details: Bovine spleen; substrate Z-RR-AMC; [DTT] = 2 mM, [EDTA] = 5 mM, pH 5.5, 37° C.; read-out: Ki Cat B
T4 construct: Bovine spleen; Substrate: Z-RR-AMC; from tissue; host or cells: bovine spleen
Description: as §1

[4] = biological target: T5, chymotrypsin-like activity of the proteasome (UniProt Q32KL2); details: slow binding inhibitors; Vinitsky et al., Biochemistry 31:9421-9428 (1992); cited from earlier work
T5 sequence (Q32KL2 1-263): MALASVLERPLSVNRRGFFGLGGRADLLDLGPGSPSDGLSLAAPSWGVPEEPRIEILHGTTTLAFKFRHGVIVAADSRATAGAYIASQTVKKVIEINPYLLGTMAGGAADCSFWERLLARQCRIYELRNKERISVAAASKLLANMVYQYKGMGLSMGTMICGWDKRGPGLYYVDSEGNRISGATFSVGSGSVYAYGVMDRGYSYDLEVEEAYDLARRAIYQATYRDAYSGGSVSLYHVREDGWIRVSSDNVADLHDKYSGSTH

In the case of `CC(C)C[C@@H](C=O)NC(=O)[C@H](CC(C)C)NC(=O)[C@H](CC(C)C)NC(=O)OCc1ccccc1` [MG 132] (Cbz-Leu-Leu-Leu-aldehyde), the Ki (20S proteasome [1]) is reported as 9 nM.

Compound `CCCC[C@@H](C=O)NC(=O)[C@H](CC(C)C)NC(=O)[C@H](CC(C)C)NC(=O)OCc1ccccc1` [MG 114, Z-Leu-Leu-Nle-H] (Cbz-Leu-Leu-[Nle]-aldehyde) has a Ki (20S Proteasome [2]) of 47 nM, a Ki [3] of 12 nM and a Ki (26S proteasome) of 120 nM. The Ki (cathepsin B) was 7 nM.

For `CCC[C@@H](C=O)NC(=O)[C@H](CC(C)C)NC(=O)[C@H](CC1CCCCC1)NC(=O)OCc1ccccc1` [MG 141] (Cbz-[Cha]-Leu-[Nva]-aldehyde), the Ki (20S proteasome [1]) was 50 nM.

In the case of `CCOC(=O)C(=O)[C@H](Cc1ccccc1)NC(=O)[C@H](CC(C)C)NC(=O)[C@H](CC(C)C)NC(=O)OCc1ccccc1` [Z-Leu-Leu-Phe-COOEt], the Ki [4] is listed as 53000 nM.

In the case of `CC(C)C[C@H](NC(=O)OCc1ccccc1)C(=O)N[C@@H](CC(C)C)C(=O)N[C@H](C=O)CC(C)(C)C` [MG 136] (Cbz-Leu-Leu-[tBuAla]-aldehyde), the Ki (20S proteasome [1]) is reported as 1000 nM.

With `CC(C)C[C@@H](C=O)NC(=O)[C@H](CC(C)C)NC(=O)[C@H](Cc1cccc2ccccc12)NC(=O)OCc1ccccc1` [MG 150] (Cbz-[1Nal]-Leu-Leu-aldehyde) the Ki (20S proteasome [1]) was 0.4 nM.

In the case of `CC(C)C[C@@H](C=O)NC(=O)[C@H](C)NC(=O)[C@H](Cc1cccc2ccccc12)NC(=O)OCc1ccccc1` [MG 168] (Cbz-[1Nal]-Ala-Leu-aldehyde), the Ki (20S proteasome [1]) is reported as 0.49 nM.

For `COc1ccc(C[C@@H](C=O)NC(=O)[C@H](CC(C)C)NC(=O)[C@H](CC(C)C)NC(=O)OCc2ccccc2)cc1` [MG 152] (Cbz-Leu-Leu-Tyr(Me)-aldehyde), the Ki (20S proteasome [1]) was 6 nM.

`C=CC[C@@H](C=O)NC(=O)[C@H](CC(C)C)NC(=O)[C@H](CC(C)C)NC(=O)OCc1ccccc1` [MG 139] (Cbz-Leu-Leu-[AllylGly]-aldehyde) showed a Ki (20S proteasome [1]) of 20 nM.

`CC(C)C[C@H](NC(=O)OCc1ccccc1)C(=O)N[C@@H](CC(C)C)C(=O)NCC=O` [MG 118] (Cbz-Leu-Leu-Gly-aldehyde) gave a Ki (20S Proteasome [2]) of 3800 nM, a Ki [3] of 120 nM and a Ki (26S proteasome) of 28000 nM. For the same compound, the Ki (cathepsin B) was 94 nM.

Work on `C#CC[C@@H](C=O)NC(=O)[C@H](CC(C)C)NC(=O)[C@H](CC(C)C)NC(=O)OCc1ccccc1` [MG 140] (Cbz-Leu-Leu-[Pra]-aldehyde) yielded a Ki (20S proteasome [1]) of 28 nM.

For `CC(C)C[C@H](NC(=O)OCc1ccccc1)C(=O)N[C@@H](CC(C)C)C(=O)N[C@H](C=O)CCc1ccccc1` [MG 124] (Cbz-Leu-Leu-[hPhe]-aldehyde), the Ki (20S proteasome [1]) was 59 nM.

Compound `CCCC[C@@H](C=O)NC(=O)[C@H](CC(C)C)NC(=O)OCc1ccccc1` [MG 105, Z-Leu-Nle-H, reference compound] has a Ki (20S Proteasome [2]) of 15000 nM.

In the case of `CC(C)C[C@@H](C=O)NC(=O)[C@H](Cc1cccc2ccccc12)NC(=O)[C@H](Cc1ccc2ccccc2c1)NC(=O)OCc1ccccc1` [MG 167] (Cbz-[2Nal]-[1Nal]-Leu-aldehyde), the Ki (20S proteasome [1]) is reported as 0.015 nM.

Compound `CC(C)C[C@H](NC(=O)OCc1ccccc1)C(=O)N[C@@H](CC(C)C)C(=O)N[C@H](C=O)Cc1ccc(O)cc1` [MG 131] (Cbz-Leu-Leu-Tyr-aldehyde) has a Ki (20S proteasome [1]) of 6 nM.

In the case of `CC(C)C[C@H](NC(=O)OCc1ccccc1)C(=O)N[C@@H](CC(C)C)C(=O)N[C@H](C=O)Cc1ccc(OCc2ccccc2)cc1` [MG 153] (Cbz-Leu-Leu-Tyr(Bn)-aldehyde), the Ki (20S proteasome [1]) is reported as 280 nM.

In the case of `CC[C@@H](C=O)NC(=O)[C@H](CC(C)C)NC(=O)[C@H](CC(C)C)NC(=O)OCc1ccccc1` [MG 119] (Cbz-Leu-Leu-[Abu]-aldehyde), the Ki (20S Proteasome [2]) is reported as 50 nM, the Ki [3] is reported as 15 nM and the Ki (26S proteasome) is reported as 280 nM. The Ki (cathepsin B) was 18 nM.

With `COC(=O)C(=O)[C@H](Cc1ccccc1)NC(=O)[C@H](CC(C)C)NC(=O)[C@H](CC(C)C)NC(=O)OCc1ccccc1` [MG 113, Z-Leu-Leu-Phe-C(O)—OMe] the Ki (20S Proteasome [2]) was 690 nM, the Ki [3] was 45 nM and the Ki (26S proteasome) was 1300 nM. The Ki (cathepsin B) was < 4 nM.
